Experimental data reported in PubChem BioAssay (NCI).
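Cultured in 96-well plates, cells were exposed to test compound for 48 hours across five concentrations. The concentration for 50% growth inhibition is given as GI50. TGI is the concentration that stops growth completely.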

Assays:
Assay in all cases: NCI anticancer screen, dose series, 48 h
SNB-19 CNS = tested on: SNB-19 CNS
OVCAR-8 ovarian = tested on: OVCAR-8 ovarian
SNB-75 CNS = tested on: SNB-75 CNS
MOLT-4 leukemia = tested on: MOLT-4 leukemia
SK-OV-3 ovarian = tested on: SK-OV-3 ovarian
HCC-2998 colon = tested on: HCC-2998 colon
MDA-MB-231 breast = tested on: MDA-MB-231 breast
NCI-H23 lung = tested on: NCI-H23 lung
HCT-116 colon = tested on: HCT-116 colon
PC-3 prostate = tested on: PC-3 prostate
UACC-257 melanoma = tested on: UACC-257 melanoma
T-47D breast = tested on: T-47D breast
OVCAR-4 ovarian = tested on: OVCAR-4 ovarian
NCI-H460 lung = tested on: NCI-H460 lung
UO-31 renal = tested on: UO-31 renal
NCI-H522 lung = tested on: NCI-H522 lung
HT29 colon = tested on: HT29 colon
BT-549 breast = tested on: BT-549 breast
MCF7 breast = tested on: MCF7 breast
IGROV1 ovarian = tested on: IGROV1 ovarian
786-0 renal = tested on: 786-0 renal
NCI-H226 lung = tested on: NCI-H226 lung
SF-268 CNS = tested on: SF-268 CNS
KM12 colon = tested on: KM12 colon
LOX IMVI melanoma = tested on: LOX IMVI melanoma
K-562 leukemia = tested on: K-562 leukemia
CAKI-1 renal = tested on: CAKI-1 renal
UACC-62 melanoma = tested on: UACC-62 melanoma
HL-60(TB) leukemia = tested on: HL-60(TB) leukemia

CCOc1ccc(C(=O)Nc2ncc(Cc3ccc(F)cc3)s2)cc1
GI50 (SNB-19 CNS): 402 nM
TGI (SNB-19 CNS): > 100000 nM
GI50 (OVCAR-8 ovarian): 376 nM
TGI (OVCAR-8 ovarian): > 52300 nM
GI50 (SNB-75 CNS): 69.3 nM
TGI (SNB-75 CNS): 3440 nM
GI50 (MOLT-4 leukemia): 151 nM
TGI (MOLT-4 leukemia): > 100000 nM
GI50 (SK-OV-3 ovarian): 289 nM
TGI (SK-OV-3 ovarian): > 64900 nM
GI50 (HCC-2998 colon): 213 nM
TGI (HCC-2998 colon): > 100000 nM
GI50 (MDA-MB-231 breast): 371 nM
TGI (MDA-MB-231 breast): > 86100 nM
GI50 (NCI-H23 lung): 466 nM
TGI (NCI-H23 lung): > 100000 nM
GI50 (HCT-116 colon): 93 nM
TGI (HCT-116 colon): > 100000 nM
GI50 (PC-3 prostate): 169 nM
TGI (PC-3 prostate): > 100000 nM
TGI (UACC-257 melanoma): > 100000 nM
GI50 (T-47D breast): 248 nM
TGI (T-47D breast): > 100000 nM
GI50 (OVCAR-4 ovarian): 1630 nM
TGI (OVCAR-4 ovarian): > 100000 nM
GI50 (NCI-H460 lung): 113 nM
TGI (NCI-H460 lung): > 100000 nM
GI50 (UO-31 renal): 350 nM
TGI (UO-31 renal): > 66500 nM
GI50 (NCI-H522 lung): 78.1 nM
TGI (NCI-H522 lung): 375 nM
GI50 (HT29 colon): 77.1 nM
GI50 (BT-549 breast): 1730 nM
TGI (BT-549 breast): > 100000 nM
GI50 (MCF7 breast): 53.7 nM
TGI (MCF7 breast): > 100000 nM
GI50 (IGROV1 ovarian): 409 nM
TGI (IGROV1 ovarian): > 100000 nM
GI50 (786-0 renal): 340 nM
TGI (786-0 renal): > 54500 nM
GI50 (NCI-H226 lung): 319 nM
TGI (NCI-H226 lung): 7630 nM
GI50 (SF-268 CNS): 4610 nM
TGI (SF-268 CNS): > 91900 nM
GI50 (KM12 colon): 83.6 nM
TGI (KM12 colon): > 100000 nM
GI50 (LOX IMVI melanoma): 145 nM
TGI (LOX IMVI melanoma): > 100000 nM
GI50 (K-562 leukemia): 44.3 nM
TGI (K-562 leukemia): > 100000 nM
GI50 (CAKI-1 renal): 74.9 nM
TGI (CAKI-1 renal): > 44200 nM
GI50 (UACC-62 melanoma): 107 nM
TGI (UACC-62 melanoma): > 100000 nM
GI50 (HL-60(TB) leukemia): 52 nM
TGI (HL-60(TB) leukemia): 4680 nM
